# Source: US7964624B1, “Inhibitors of serine proteases” (priority 2005, dated 2011)
# Molecular target: T1, full-length hepatitis C viral protein NS3•4A (Hepatitis C virus genotype 1a, UniProt P27958)
# T1 construct: hexa-histidine (N); made in house; host or cells: Sf9 insect cells (baculovirus, pVL1392)
# Test: biochemical
# Set-up: species or system HCV sub-type strain 1a
# Settings: Enzyme Assay 2 (HCV NS3 Peptide Cleavage Assay) activity, apparent Ki class
row,Compound,Ki [nM]
1,CNC(=O)C(=O)[C@H](CC1CC1)NC(=O)[C@@H]1C[C@]2(CC(c3cc(Cl)c(OC)cc3OC)=NO2)CN1C(=O)[C@@H](NC(=O)OC1CCCC1)C(C)(C)C [Compound 744],< 100
2,CCC[C@H](NC(=O)[C@@H]1C[C@]2(CC(c3cc(Cl)c(OC)cc3OC)=NO2)CN1C(=O)[C@@H](NC(=O)CC1(C)CCOCC1)C(C)(C)C)C(=O)C(=O)NC1CC1 [Compound 286],< 100
3,CCC[C@H](NC(=O)[C@@H]1C[C@]2(CC(c3cc(C)c(OCC)c(Cl)c3)=NO2)CN1C(=O)[C@@H](NC(=O)OC1CCCC1)C(C)(C)C)C(=O)C(=O)NC [Compound 785],< 100
4,CCC[C@H](NC(=O)[C@@H]1C[C@]2(CC(c3cccc4cccnc34)=NO2)CN1C(=O)[C@@H](NC(=O)OC1CCCC1)C(C)(C)C)C(=O)C(=O)NC1CC1 [Compound 648],100 to 500
5,CCC[C@H](NC(=O)[C@@H]1C[C@]2(CC(c3cccc(Cl)c3)=NO2)CN1C(=O)[C@@H](NC(=O)CC1CCCCC1)C(C)(C)C)C(=O)C(=O)N1CC(OCC2CCOC2)C1 (some centres unmarked) [Compound 49],< 100
6,CCC[C@H](NC(=O)[C@@H]1C[C@]2(CC(c3cc(Cl)ccn3)=NO2)CN1C(=O)[C@@H](NC(=O)OC1CCCC1)C(C)(C)C)C(=O)C(=O)NC1CC1 [Compound 667],< 100
7,CNC(=O)C(=O)[C@H](CC1CC1)NC(=O)[C@@H]1C[C@]2(CC(c3cc(C)c(OC)c(C)c3)=NO2)CN1C(=O)[C@@H](NC(=O)CC1CCCCC1)C(C)(C)C [Compound 725],< 100
8,CCC[C@H](NC(=O)[C@@H]1C[C@]2(CC(c3cc(C)c(OC)c(C)c3)=NO2)CN1C(=O)[C@@H](NC(=O)CC1CCCCC1)C(C)(C)C)C(=O)C(N)=O [Compound 724],< 100
9,CNC(=O)C(=O)[C@H](CC1CC1)NC(=O)[C@@H]1C[C@]2(CC(c3cccc4cccnc34)=NO2)CN1C(=O)[C@@H](NC(=O)CC1CCCCC1)C(C)(C)C [Compound 671],100 to 500
10,CCC[C@H](NC(=O)[C@@H]1C[C@]2(CC(c3cc(Cl)cc(OC)c3Cl)=NO2)CN1C(=O)[C@@H](NC(=O)CC1CCCCC1)C(C)(C)C)C(=O)C(=O)NC1CC1 [Compound 38],100 to 500
11,CCC[C@H](NC(=O)[C@@H]1C[C@]2(CC(c3cc(Cl)nc4ccccc34)=NO2)CN1C(=O)[C@@H](NC(=O)OC1CCCC1)C(C)(C)C)C(=O)C(=O)NC1CC1 [Compound 639],< 100
12,CCC[C@H](NC(=O)[C@@H]1C[C@]2(CC(c3cc(Cl)nc4ccccc34)=NO2)CN1C(=O)[C@@H](NC(=O)CC1CCCCC1)C(C)(C)C)C(=O)C(=O)NC1CC1 [Compound 638],< 100
13,CCC[C@H](NC(=O)[C@@H]1C[C@]2(CC(c3cccc(Cl)c3)=NO2)CN1C(=O)[C@@H](NC(=O)CC1CCCCC1)C(C)(C)C)C(=O)C(=O)N1CC(OC2CCOC2)C1 (some centres unmarked) [Compound 368],100 to 500
14,CCC[C@H](NC(=O)[C@@H]1C[C@]2(CC(c3cccc4cccnc34)=NO2)CN1C(=O)[C@@H](NC(=O)CC1CCCCCC1)C(C)(C)C)C(=O)C(=O)NC [Compound 596],100 to 500
15,CCC[C@H](NC(=O)[C@@H]1C[C@]2(CC(c3ccc(F)c(Cl)c3)=NO2)CN1C(=O)[C@@H](NC(=O)CC(C)(C)C)C(C)(C)C)C(=O)C(=O)NC1CC1 [Compound 613],< 100
16,CCC[C@H](NC(=O)[C@@H]1C[C@]2(CC(c3cccc(Cl)c3)=NO2)CN1C(=O)[C@@H](NC(=O)CC1CC2CCC1C2)C(C)(C)C)C(=O)C(N)=O (some centres unmarked) [Compound 779],< 100
17,CCC[C@H](NC(=O)[C@@H]1C[C@]2(CC(c3cc(Cl)c(OC)cc3OC)=NO2)CN1C(=O)[C@@H](NC(=O)CC1CCCCCC1)C(C)(C)C)C(=O)C(=O)NC [Compound 655],100 to 500

row,Compound,Ki [nM]
1,COc1cc(OC)c(C2=NO[C@]3(C2)CC(C(=O)N[C@@H](CC2CC2)C(=O)C(N)=O)N(C(=O)[C@@H](NC(=O)CC2CCCCCC2)C(C)(C)C)C3)cc1Cl (some centres unmarked) [Compound 59],< 100
2,CCC[C@H](NC(=O)[C@@H]1C[C@]2(CC(c3cc(Cl)c(OC)cc3C)=NO2)CN1C(=O)[C@@H](NC(=O)OC1CCCC1)C(C)(C)C)C(=O)C(N)=O [Compound 651],100 to 500
3,CCC[C@H](NC(=O)[C@@H]1C[C@]2(CC(c3cc(Cl)c(OC)cc3C)=NO2)CN1C(=O)[C@@H](NC(=O)CC1CCCCC1)C(C)(C)C)C(=O)C(N)=O [Compound 620],< 100
4,CCC[C@H](NC(=O)[C@@H]1C[C@]2(CC(c3cc(C)cc(Cl)c3)=NO2)CN1C(=O)[C@@H](NC(=O)CC1CCCCC1)C(C)(C)C)C(=O)C(=O)NC1CC1 [Compound 396],< 100
5,CCC[C@H](NC(=O)[C@@H]1C[C@]2(CC(c3cccc(Cl)c3)=NO2)CN1C(=O)[C@@H](NC(=O)OC(C)(C)C)C(C)(C)C)C(=O)C(=O)NC1CC1 [Compound 90],< 100
6,CCC[C@H](NC(=O)[C@@H]1C[C@]2(CC(c3cc(C)c(OC)cc3OC)=NO2)CN1C(=O)[C@@H](NC(=O)CC1CCCCC1)C(C)(C)C)C(=O)C(=O)NC1CC1 [Compound 614],< 100
7,CCC[C@H](NC(=O)[C@@H]1C[C@]2(CC(c3cc(Cl)c(OC)cc3C)=NO2)CN1C(=O)[C@@H](NC(=O)CC1CCCCC1)C(C)(C)C)C(=O)C(=O)NC [Compound 604],100 to 500
8,CCC[C@H](NC(=O)[C@@H]1C[C@]2(CC(c3cccc4cccnc34)=NO2)CN1C(=O)[C@@H](NC(=O)OC(C)(C)C)C(C)(C)C)C(=O)C(=O)NC1CC1 [Compound 619],< 100
9,CCC[C@H](NC(=O)[C@@H]1C[C@]2(CC(c3cc(C)c(OC)c(Cl)c3)=NO2)CN1C(=O)[C@@H](NC(=O)OC(C)(C)C)C(C)(C)C)C(=O)C(=O)NC1CC1 [Compound 645],< 100
10,CCC[C@H](NC(=O)[C@@H]1C[C@]2(CC(c3cccc4cccnc34)=NO2)CN1C(=O)[C@@H](NC(=O)CC1CCCCCC1)C(C)(C)C)C(=O)C(=O)NC1CC1 [Compound 595],< 100
11,CCC[C@H](NC(=O)[C@@H]1C[C@]2(CC(c3ccc(F)c(Cl)c3)=NO2)CN1C(=O)[C@@H](NC(=O)CC1CCCCCC1)C(C)(C)C)C(=O)C(=O)NC [Compound 610],< 100
12,CCC[C@H](NC(=O)[C@@H]1C[C@]2(CC(c3cc(Cl)cc4c3OCOC4)=NO2)CN1C(=O)[C@@H](NC(=O)CC1CCCCC1)C(C)(C)C)C(=O)C(=O)NC1CC1 [Compound 676],< 100
13,CCC[C@H](NC(=O)[C@@H]1C[C@]2(CC(c3cc(Cl)c(OC)cc3OC)=NO2)CN1C(=O)[C@@H](NC(=O)CC1CCCCCC1)C(C)(C)C)C(=O)C(N)=O [Compound 656],100 to 500
14,CCC[C@H](NC(=O)[C@@H]1C[C@]2(CC(c3cccc(Cl)c3)=NO2)CN1C(=O)[C@@H](NC(=O)OC1CCCC1)C(C)(C)C)C(=O)C(=O)NC1CC1 [Compound 369],< 100
15,CCC[C@H](NC(=O)[C@@H]1C[C@]2(CC(c3cc(Cl)c(OC)cc3C)=NO2)CN1C(=O)[C@@H](NC(=O)CC(C)(C)C)C(C)(C)C)C(=O)C(=O)NC1CC1 [Compound 608],100 to 500
16,CCC[C@H](NC(=O)[C@@H]1C[C@]2(CC(c3cc(C)c(OC)cc3C)=NO2)CN1C(=O)[C@@H](NC(=O)CC1CCCCC1)C(C)(C)C)C(=O)C(=O)NC1CC1 [Compound 615],100 to 500

# Same assay, conditions: Enzyme Assay 2, HCV NS3 Peptide Cleavage Assay, apparent Ki
row,Compound,Ki [nM]
1,CCNC(=O)C(=O)[C@H](CC1CC1)NC(=O)[C@@H]1C[C@]2(CC(c3cc(C)c(OC)c(Cl)c3)=NO2)CN1C(=O)[C@@H](NC(=O)[C@@H]1C[C@H]1c1ccccc1)C(C)(C)C [Compound 856],< 100
2,CCC[C@H](NC(=O)[C@@H]1C[C@]2(CC(c3cc(C)c(OC)cc3OC)=NO2)CN1C(=O)[C@@H](NC(=O)[C@@H]1C[C@H]1c1ccccc1)C(C)(C)C)C(=O)C(=O)NC1CC1 [Compound 875],< 100
3,CCC[C@H](NC(=O)[C@@H]1C[C@]2(CC(c3cccc(Cl)c3)=NO2)CN1C(=O)[C@@H](NC(=O)[C@H]1CC12CCOCC2)C(C)(C)C)C(=O)C(=O)NC1CC1 [Compound 826],< 100
4,CCC[C@H](NC(=O)[C@@H]1C[C@]2(CC(c3cccc(Cl)c3)=NO2)CN1C(=O)[C@@H](NC(=O)[C@@H]1C[C@H]1C1CCCC1)C(C)(C)C)C(=O)C(=O)NC1CC1 [Compound 954],< 100
5,CNC(=O)C(=O)[C@H](CC1CC1)NC(=O)[C@@H]1C[C@]2(CC(c3cccc(Cl)c3)=NO2)CN1C(=O)[C@@H](NC(=O)[C@H]1C[C@H]1c1ccccc1)C(C)(C)C [Compound 887],100 to 500
6,CNC(=O)C(=O)[C@H](CC1CC1)NC(=O)[C@@H]1C[C@]2(CC(c3cccc(Cl)c3)=NO2)CN1C(=O)[C@@H](NC(=O)Cc1cccnc1)C(C)(C)C [Compound 958],< 100
7,COc1c(C)cc(C2=NO[C@]3(C2)C[C@@H](C(=O)N[C@@H](CC2CC2)C(=O)C(N)=O)N(C(=O)[C@@H](NC(=O)[C@@H]2C[C@H]2c2ccccc2)C(C)(C)C)C3)cc1Cl [Compound 811],< 100
8,CCC[C@H](NC(=O)[C@@H]1C[C@]2(CC(c3cccc(Cl)c3)=NO2)CN1C(=O)[C@@H](NC(=O)C1(c2ccccc2)CC1)C(C)(C)C)C(=O)C(=O)NC1CC1 [Compound 961],> 500
9,[2H][C@@](CCC)(NC(=O)[C@@H]1C[C@]2(CC(c3cc(C)c(OC)c(C)c3)=NO2)CN1C(=O)[C@@H](NC(=O)CC1CCCCC1)C(C)(C)C)C(=O)C(=O)NC1CC1 [Compound 967],< 100
10,CNC(=O)C(=O)[C@H](CC1CC1)NC(=O)[C@@H]1C[C@]2(CC(c3cccc(Cl)c3)=NO2)CN1C(=O)[C@@H](NC(=O)[C@H]1CC1c1ccccc1)C(C)(C)OC (some centres unmarked) [Compound 959],< 100
11,CCNC(=O)C(=O)[C@H](CC1CC1)NC(=O)[C@@H]1C[C@]2(CC(c3cc(Cl)c(OC)cc3OC)=NO2)CN1C(=O)[C@@H](NC(=O)C1CC1)C(C)(C)C [Compound 896],< 100
12,CCC[C@H](NC(=O)[C@@H]1C[C@]2(CC(c3cc(Cl)ccc3N(C)C)=NO2)CN1C(=O)[C@@H](NC(=O)CC1CCCCC1)C(C)(C)C)C(=O)C(=O)NC1CC1 [Compound 803],100 to 500
13,CCC[C@H](NC(=O)[C@@H]1C[C@]2(CC(c3cc(C)c(OCC)c(C)c3)=NO2)CN1C(=O)[C@@H](NC(=O)[C@@H]1C[C@H]1c1ccccc1)C(C)(C)C)C(=O)C(=O)NC [Compound 828],< 100
14,CCC[C@H](NC(=O)[C@@H]1C[C@]2(CC(c3cc(C)c(OCC)c(Cl)c3)=NO2)CN1C(=O)[C@@H](NC(=O)[C@@H]1C[C@H]1c1ccccc1)C(C)(C)C)C(=O)C(=O)NC1CC1 [Compound 915],< 100
